In patent US20260055117A1, “SUBSTITUTED PYRIDONE GPR84 ANTAGONISTS AND USES THEREOF” (Liminal BioSciences Limited, priority 2022, published 2026):

Target: T1, human GPR84 receptor (Homo sapiens, UniProt Q9NQS5)
T1 construct: host or cells: HEK293, transiently transfected
Assay: Gαi biosensor BRET assay (GPR84 antagonism vs agonist ZQ-16)
Type: cell-based
Settings: HEK293 cells, 200 nmol/L agonist ZQ-16; for IC50: Gαi biosensor BRET assay; for inhibition at 10 µM: tested at 10 μM (concentration code D); for inhibition at 2 µM: tested at 2 μM (concentration code A)
Description: Background—The following assays can be used for determination of GPR84 activation in living HEK293 cells. The Gai BRET biosensor (Gagnon et al., 2018; Gales et al., 2006. Nat Struct Mol Biol. 13, 778-86; Saulieres et al., 2012. Nat Chem Biol. 8, 622-30) allows to directly monitor GPR84-mediated activation of Gai. The Gai biosensor consists of a Rluc8-tagged Gai2 subunit, a GFP10-tagged Gy2 subunit, and an untagged GB1. Agonist stimulation and GPR84 activation triggers a physical separation between the RLuc8-Gai donor and the GFP10-Gy2 acceptor, resulting in a decrease in BRET signal whose amplitude is correlated to ligand efficacy (Gales et al., 2006). Moreover, signaling functions of GPCRs are tightly regulated by endocytosis, the targeting of receptors to endosomes and their sorting to lysosomes or recycling to the plasma membrane. The early endosomes (EEs) trafficking assay (Namkung et al., 2016. Nat Commun. 7, 12178) uses Rluc8-tagged GPR84 and Renilla GFP (rGFP) attached to the FYVE domain from human endofin/zinc finger FYVE domain-containing protein 16, which binds phosphatidylinositol 3-phosphate in EEs. Agonist stimulation of GPR84-Rluc8 leads to trafficking of the receptor to EEs, and ensuing increase of the donor concentration relative to the rGFP-FYVE acceptor anchored in the same cellular compartment, and thus results in an increase in BRET signal.
Plasmids—The cDNA clones for human GPR84 receptor, human Gai2, GB1, and Gy2 were obtained from the cDNA Resource Center (www.cdna.org). GFP10 (F64L, S147P, S202F and H231L variant of Aequorea victoria Green Fluorescent Protein) gBlocks gene fragments (Integrated DNA Technologies, IA) and linker were inserted in frame at the N-terminus of human Gy2. Rluc8 (A55T, C124A, S130A, K136R, A143M, M185V, M253L, and S287L variant of the Renilla reniformis luciferase) gBlocks gene fragment was inserted with linkers in frame in between residues 91 and 92 of Gai2 or at the C-terminus of GPR84. The FYVE domain from human endofin (residues Q739 to K806) attached in frame at the C terminus of a humanized Renilla GFP (rGFP), were synthesized as gBlocks gene fragments.
Bioluminescence Resonance Energy Transfer (BRET) Measurement-HEK293 cells were transfected with GPR84-Rluc8 and rGFP-FYVE for the EEs trafficking biosensor or with GPR84, Gai2-Rluc8, GFP10-Gy2, and GB1 for the Ga; biosensor. The following day, transiently transfected cells were seeded in 96-well white clear bottom microplates coated with poly-D-lysine and left in culture for 24 hours. Cells were washed once with Tyrode's buffer (140 mmol/L NaCl, 1 mmol/L CaCl2), 2.7 mmol/L KCl, 0.49 mmol/L MgCl2, 0.37 mmol/L NaH2PO4, 5.6 mmol/L glucose, 12 mmol/L NaHCO3, and 25 mmol/L HEPES, pH 7.5) before performing assays in Tyrode's buffer. Test compounds were incubated with cells for 5 (Gai) or 15 (EEs) minutes at 37° C. before addition of 200 nmol/L of the GPR84 agonist ZQ-16 (2-(Hexylthio)-6-hydroxy-4 (3H)-pyrimidinone) for 5 minutes at room temperature (Gai) or 30 minutes at 37° C. (EEs). The Rluc8 substrate coelenterazine 400A (Prolume, Lakeside, A Z) was added at a final concentration of 5 μmol/L and BRET readings were collected using an Infinite M1000 microplate reader (Tecan, Morrisville, N C). BRET2 readings between Rluc8 and GFP10 or rGFP were collected by sequential integration of the signals detected in the 370 to 450 nm (Rluc8) and 510 to 540 nm (GFP10, rGFP) windows. The BRET signal was calculated as the ratio of light emitted by acceptor (GFP10, rGFP) over the light emitted by donor (Rluc8). The values were corrected to net BRET by subtracting the background BRET signal obtained in cells transfected with Rluc8 constructs alone. Ligand-promoted net BRET values were calculated by subtracting vehicle-induced net BRET from ligand-induced net BRET.

T1 sequence (Q9NQS5 whole entry): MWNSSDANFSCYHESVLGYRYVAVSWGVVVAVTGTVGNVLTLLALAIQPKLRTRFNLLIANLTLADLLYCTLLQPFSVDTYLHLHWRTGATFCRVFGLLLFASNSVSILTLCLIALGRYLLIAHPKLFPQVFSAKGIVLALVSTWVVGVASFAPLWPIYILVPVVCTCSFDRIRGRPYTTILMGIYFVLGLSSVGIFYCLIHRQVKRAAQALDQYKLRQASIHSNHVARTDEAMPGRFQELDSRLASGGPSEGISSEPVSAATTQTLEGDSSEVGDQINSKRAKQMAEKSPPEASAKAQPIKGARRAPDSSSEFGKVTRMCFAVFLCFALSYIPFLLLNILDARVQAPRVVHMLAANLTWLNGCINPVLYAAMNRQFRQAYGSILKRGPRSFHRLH

IC50 [nM] | inhibition at 10 µM [%] | inhibition at 2 µM [%] | inhibition at 5.4 µM (tested at 5.4 μM (concentration code C)) [%] | SMILES
300 to 1000 | > 75 | – | – | Cc1cc(OCC(=O)N2CCC[C@@H]2C(N)=O)cc(=O)n1[C@H](C)c1ccc(C#CC2CC2)cc1 [Compound I-318]
300 to 1000 | > 75 | – | – | Cc1cc(OCc2ncccc2C(F)(F)F)cc(=O)n1[C@H](C)c1ccc(C#CC2CC2)cc1 [Compound I-71]
1000 to 3000 | > 75 | – | – | Cc1cc(OCC(=O)N2CC[C@H]2C(=O)O)cc(=O)n1[C@H](C)c1ccc(C#CC2CC2)cc1 [Compound I-301]
– | > 75 | – | – | COC(COc1cc(C)n([C@H](C)c2ccc(C#CC3CC3)cc2)c(=O)c1)C(C)C (stereo partly drawn) [Compound I-275]
≤ 300 | – | > 75 | – | Cc1cc(OCC(=O)N2CC[C@H](C#N)C2)cc(=O)n1[C@H](C)c1ccc(C#CC2CC2)cc1 [Compound I-310]
– | 50 to 75 | – | – | Cc1cc(OCC(=O)O)cc(=O)n1[C@H](C)c1ccc(C#CC2CC2)cc1 [Compound I-21]
≤ 300 | > 75 | – | – | Cc1cc(OCC(=O)N2CC3(CCO3)C2)cc(=O)n1[C@H](C)c1ccc(C#CC2CC2)cc1 [Compound I-289]
≤ 300 | – | > 75 | – | Cc1cc(OCC(=O)N2CCC2)cc(=O)n1[C@H](C)c1ccc(C#CC2CC2)cc1 [Compound I-1, (R)-4-(2-(azetidin-1-yl)-2-oxoethoxy)-1-(1-(4-(cyclopropylethynyl)phenyl)ethyl)-6-methylpyridin-2 (1H)-one]
≤ 300 | – | > 75 | – | Cc1cc(OCC(=O)N2CC3CCC(C2)O3)cc(=O)n1[C@H](C)c1ccc(C#CC2CC2)cc1 [Compound I-325]
≤ 300 | – | > 75 | – | Cc1cc(OCC(=O)N2CCC2)cc(=O)n1[C@H](C)c1ccc(C#CC2CC2)c(F)c1 [Compound I-23]
– | 50 to 75 | – | – | CNS(=O)(=O)COc1cc(C)n([C@H](C)c2ccc(C#CC3CC3)cc2)c(=O)c1 [Compound I-47]
– | – | > 75 | – | Cc1cc(OCC(=O)N2CCC(C)(C)C2)cc(=O)n1[C@H](C)c1ccc(C#CC2CC2)cc1 [Compound I-256]
≤ 300 | > 75 | – | – | CCCC#Cc1ccc([C@@H](C)n2c(C)cc(OCC(=O)N(C)C)cc2=O)cc1 [Compound I-20]
≤ 300 | – | > 75 | – | Cc1cc(OCC(=O)N2CCC(F)(F)C2)cc(=O)n1[C@H](C)c1ccc(C#CC2CC2)cc1 [Compound I-257]
– | 50 to 75 | – | – | Cc1cc(OCc2ncccn2)cc(=O)n1[C@H](C)c1ccc(C#CC2(C)CC2)cc1 [Compound I-77]
– | – | > 75 | – | Cc1cc(OCC(=O)N(C)C2CCN(C)CC2)cc(=O)n1[C@H](C)c1ccc(C#CC2CC2)cc1 [Compound I-44]
– | 50 to 75 | – | – | Cc1cc(OCC2(N(C)C)CC2)cc(=O)n1[C@H](C)c1ccc(C#CC2CC2)cc1 [Compound I-30]
300 to 1000 | > 75 | – | – | Cc1cc(OCC(=O)N2CCCC2)cc(=O)n1[C@H](C)c1ccc(C#CC2(C)CC2)cc1 [Compound I-88]
≤ 300 | – | > 75 | – | CCN(CC)C(=O)COc1cc(C)n([C@H](C)c2ccc(C#CC3CC3)cc2)c(=O)c1 [Compound I-268]
– | 50 to 75 | – | – | Cc1nc(OCC(=O)N2CCC[C@@H]2C(=O)O)cc(=O)n1[C@H](C)c1ccc(C#CC2CC2)cc1 [Compound I-296]
– | – | – | > 75 | C#Cc1ccc([C@@H](C)n2c(C)cc(OCC(=O)N(C)C)cc2=O)cc1 [Compound I-295]
300 to 1000 | – | > 75 | – | Cc1cc(OCC(=O)N2CCC[C@H]2C(F)(F)F)cc(=O)n1[C@H](C)c1ccc(C#CC2CC2)cc1 [Compound I-255]
– | < 25 | – | – | Cc1nc(OCC(=O)N(C)C)cc(=O)n1[C@@H](C)c1ccc(C#CC2CC2)cc1 [Compound I-218]
– | > 75 | – | – | COc1cncnc1COc1cc(C)n([C@H](C)c2ccc(C#CC3CC3)cc2)c(=O)c1 [Compound I-4]

Second part, the molecule before the results:

SMILES | IC50 [nM] | inhibition at 10 µM [%] | inhibition at 2 µM [%] | inhibition at 5.4 µM (tested at 5.4 μM (concentration code C)) [%]
Cc1cc(OCC(=O)N(C)C)c(Br)c(=O)n1[C@H](C)c1ccc(C#CC2CC2)cc1 [Compound I-317] | – | 50 to 75 | – | –
Cc1cc(OCC(=O)N(C)C)cc(=O)n1C(C)c1ccccn1 (stereo not drawn) [Compound I-225] | – | < 25 | – | –
Cc1cc(OCc2ncccn2)cc(=O)n1[C@H](C)c1ccc(-c2cnc(C3CC3)cn2)c(F)c1 [Compound I-10] | – | < 25 | – | –
Cc1cc(OCC(=O)N2CCCC2)cc(=O)n1[C@H](C)c1ccc(C#CC2CC2)cc1 [Compound I-2] | ≤ 300 | – | > 75 | –
C[C@H](c1ccc(C#CC2CC2)cc1)n1c(CO)cc(OCC(=O)N(C)C)cc1=O [Compound I-287] | – | > 75 | – | –
Cc1cc(OCC(=O)N2CCC[C@@H]2C(=O)O)cc(=O)n1[C@H](C)c1ccc(C#CC2CC2)cc1 [Compound I-246] | 300 to 1000 | > 75 | – | –
Cc1cc(OCC(=O)N2CCC(F)(F)CC2)cc(=O)n1[C@H](C)c1ccc(C#CC2CC2)cc1 [Compound I-8] | – | > 75 | – | –
Cc1cc(OCC(=O)N2CCOCC2)cc(=O)n1[C@H](C)c1ccc(C#CC2CC2)c(F)c1 [Compound I-27] | – | > 75 | – | –
Cc1cc(OCC(=O)N2CC(C(=O)O)C2)cc(=O)n1[C@H](C)c1ccc(C#CC2CC2)cc1 [Compound I-302] | ≤ 300 | – | > 75 | –
Cc1cc(OCC(=O)N2CC[C@@H](C(=O)O)C2)cc(=O)n1[C@H](C)c1ccc(C#CC2CC2)cc1 [Compound I-250] | ≤ 300 | – | > 75 | –
Cc1cc(OCC(=O)N2CCC[C@H]2C2CC2)cc(=O)n1[C@H](C)c1ccc(C#CC2CC2)cc1 [Compound I-308] | 300 to 1000 | – | > 75 | –
COC1CN(C(=O)COc2cc(C)n([C@H](C)c3ccc(C#CC4CC4)cc3)c(=O)c2)C1 [Compound I-294] | ≤ 300 | – | > 75 | –
Cc1cc(OCC(=O)N(C)C)cc(=O)n1[C@H](C)c1ccc(C#CC2CC2)c(C2CC2)c1 [Compound I-33] | – | > 75 | – | –
Cc1cc(OCc2ncccn2)cc(=O)n1[C@H](C)c1ccc(C#CC2(C(F)(F)F)CC2)c(F)c1 [Compound I-53] | – | 50 to 75 | – | –
Cc1cc(OCC(=O)N2CC(C)C2)cc(=O)n1[C@H](C)c1ccc(C#CC2CC2)cc1 [Compound I-290] | ≤ 300 | – | > 75 | –
Cn1c(-c2ccc(C#CC3CC3)cc2)cc(OCC2COCCO2)nc1=O (stereo not drawn) [Compound I-215] | – | < 25 | – | –
Cc1cc(OCC(=O)N2CCC[C@@H]2C#N)cc(=O)n1[C@H](C)c1ccc(C#CC2CC2)cc1 [Compound I-306] | 300 to 1000 | – | > 75 | –
Cc1cc(OCC(=O)N(C)C2CNC2)cc(=O)n1[C@H](C)c1ccc(C#CC2CC2)cc1 [Compound I-78] | – | > 75 | – | –
CC#CC#Cc1ccc([C@@H](C)n2c(C)cc(OCc3ncccn3)cc2=O)cc1 [Compound I-74] | – | 25 to 50 | – | –
Cc1cc(OCC(=O)N2CC3CCC2CO3)cc(=O)n1[C@H](C)c1ccc(C#CC2CC2)cc1 (stereo partly drawn) [Compound I-327] | 1000 to 3000 | – | > 75 | –
